Here are results for seven compounds from patent publication US9062124B2, “GIP-based mixed agonists for treatment of metabolic disorders and obesity” (priority 2008, dated 2015).

Where a SMILES comes first, the peptide text is derived from it. Bridges are numbered along the chain shown (N, C = ends). [ ]: non-standard residue; d: D form. Aib = CC(C)(N)C(=O)O

What all share (format): cell-based
The target of one assay is T1, glucagon receptor (Homo sapiens, UniProt P47871).
T1 construct: expressed in transfected cells; host or cells: HEK293
The experiment in a line: cAMP synthesis functional assay (firefly luciferase reporter in HEK293 cells), glucagon receptor. The note with it: for EC50: Glucagon Receptor EC50, nM. A general note: In a reporter assay the amount or activity of a reporter protein is the signal.

The target of a further assay is T2, GLP-1 receptor (Homo sapiens, UniProt P43220).
T2 construct: expressed in transfected cells; host or cells: HEK293
The experiment in a line: cAMP synthesis functional assay (firefly luciferase reporter in HEK293 cells), GLP-1 receptor. The note with it: for EC50: GLP-1 Receptor EC50, nM.

In the next assay the target is T3, GIP receptor (Homo sapiens, UniProt P48546).
T3 construct: expressed in transfected cells; host or cells: HEK293
T3 sequence (P48546 22-466): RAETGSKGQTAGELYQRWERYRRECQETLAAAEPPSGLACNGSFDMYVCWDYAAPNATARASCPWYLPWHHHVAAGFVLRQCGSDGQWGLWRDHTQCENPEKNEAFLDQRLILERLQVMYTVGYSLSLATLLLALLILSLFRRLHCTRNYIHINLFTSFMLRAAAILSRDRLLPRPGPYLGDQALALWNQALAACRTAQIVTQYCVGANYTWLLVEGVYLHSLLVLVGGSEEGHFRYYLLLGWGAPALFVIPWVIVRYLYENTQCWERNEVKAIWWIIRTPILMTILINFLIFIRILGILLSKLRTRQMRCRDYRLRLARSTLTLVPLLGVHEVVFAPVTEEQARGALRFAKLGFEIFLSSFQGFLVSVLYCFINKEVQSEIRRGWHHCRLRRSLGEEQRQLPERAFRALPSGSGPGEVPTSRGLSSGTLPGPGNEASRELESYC
The experiment in a line: cAMP synthesis functional assay (firefly luciferase reporter in HEK293 cells), GIP receptor.

The mark [1] stands for this setting: Table 1, relative to the native hormone of the indicated receptor.

T2 sequence (P43220 24-463, species assumed): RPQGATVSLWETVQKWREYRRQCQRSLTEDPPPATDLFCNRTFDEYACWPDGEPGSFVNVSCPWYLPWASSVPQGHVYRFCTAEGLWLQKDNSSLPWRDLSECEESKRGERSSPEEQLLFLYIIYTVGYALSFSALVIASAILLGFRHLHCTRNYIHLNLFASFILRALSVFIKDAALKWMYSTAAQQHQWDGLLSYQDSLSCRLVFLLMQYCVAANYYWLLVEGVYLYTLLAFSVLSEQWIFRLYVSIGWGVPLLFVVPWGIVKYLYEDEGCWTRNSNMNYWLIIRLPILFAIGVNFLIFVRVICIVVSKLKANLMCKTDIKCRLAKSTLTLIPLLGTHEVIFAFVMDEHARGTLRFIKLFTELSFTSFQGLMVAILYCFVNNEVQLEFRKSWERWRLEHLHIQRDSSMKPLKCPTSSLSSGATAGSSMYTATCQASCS
T1 sequence (P47871 26-477): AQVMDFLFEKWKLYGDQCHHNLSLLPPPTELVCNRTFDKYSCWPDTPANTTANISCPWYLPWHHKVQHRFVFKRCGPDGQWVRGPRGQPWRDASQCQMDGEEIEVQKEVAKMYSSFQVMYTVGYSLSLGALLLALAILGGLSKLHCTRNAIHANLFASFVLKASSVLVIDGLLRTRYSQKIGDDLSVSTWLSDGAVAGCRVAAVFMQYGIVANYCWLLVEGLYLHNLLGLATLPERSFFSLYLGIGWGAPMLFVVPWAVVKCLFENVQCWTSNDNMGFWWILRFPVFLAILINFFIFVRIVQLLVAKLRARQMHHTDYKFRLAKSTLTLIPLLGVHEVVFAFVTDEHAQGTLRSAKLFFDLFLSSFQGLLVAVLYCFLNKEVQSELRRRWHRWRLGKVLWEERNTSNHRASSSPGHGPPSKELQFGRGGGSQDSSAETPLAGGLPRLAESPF

By EC50 is commonly meant the concentration at which the effect is half-maximal. The low end stands for higher potency in that assay, the high end for lower potency in that assay. `CC(C)C[C@H](NC(=O)[C@H](CC(C)C)NC(=O)[C@H](Cc1c[nH]c2ccccc12)NC(=O)[C@H](CC(N)=O)NC(=O)[C@@H](NC(=O)[C@H](Cc1ccccc1)NC(=O)[C@H](CCC(=O)O)NC(=O)[C@H](CCCCN)NC(=O)[C@H](C)NC(=O)[C@H](C)NC(=O)[C@H](CCC(N)=O)NC(=O)[C@@H]1CCC(=O)NCCCC[C@H](NC(=O)[C@H](CO)NC(=O)[C@H](Cc2ccc(O)cc2)NC(=O)[C@H](CC(=O)O)NC(=O)[C@H](CO)NC(=O)[C@@H](NC(=O)[C@H](Cc2ccccc2)NC(=O)[C@@H](NC(=O)CNC(=O)[C@H](CCC(N)=O)NC(=O)[C@H](CO)NC(=O)[C@@H](N)Cc2ccc(O)cc2)[C@@H](C)O)[C@@H](C)O)C(=O)N[C@@H](Cc2ccc(O)cc2)C(=O)N[C@@H](CC(C)C)C(=O)N[C@@H](CC(=O)O)C(=O)N1)C(C)C)C(=O)N[C@@H](C)C(=O)NCC(=O)NCC(=O)N1CCC[C@H]1C(=O)N[C@@H](CO)C(=O)N[C@@H](CO)C(=O)NCC(=O)N[C@@H](C)C(=O)N1CCC[C@H]1C(=O)N1CCC[C@H]1C(=O)N1CCC[C@H]1C(=O)N[C@@H](CO)C(N)=O` [mt-155] (H-YSQGTFTSDYSKYLDEQAAKEFVNWLLAGGPSSGAPPPS-NH2; lactam 12-16; N-terminus assumed) yielded a half-maximal effective concentration (EC50) on glucagon receptor (Table 1) of 1.28 nM. The “Glucagon Receptor relative activity” value at glucagon receptor (setting [1]) is 10.93%. Also, the “GLP-1 Receptor relative activity” value on GLP-1 receptor (setting [1]) is 98.99%. Besides, the “GIP Receptor relative activity” value at GIP receptor (setting [1]) is on record as 7.02%.

On to `CC[C@H](C)[C@H](NC(=O)[C@H](Cc1ccccc1)NC(=O)[C@H](CCC(=O)O)NC(=O)[C@@H]1CCC(=O)NCCCC[C@H](NC(=O)[C@H](CC(=O)O)NC(=O)[C@H](CC(C)C)NC(=O)[C@H](Cc2ccc(O)cc2)NC(=O)[C@H](CCCCN)NC(=O)[C@H](CO)NC(=O)[C@H](Cc2ccc(O)cc2)NC(=O)[C@H](CC(=O)O)NC(=O)[C@H](CO)NC(=O)[C@@H](NC(=O)[C@H](Cc2ccccc2)NC(=O)[C@@H](NC(=O)CNC(=O)[C@H](CCC(N)=O)NC(=O)[C@H](CO)NC(=O)[C@@H](N)Cc2c[nH]cn2)[C@@H](C)O)[C@@H](C)O)C(=O)N[C@@H]([C@@H](C)CC)C(=O)N[C@@H](Cc2c[nH]cn2)C(=O)N[C@@H](CCC(N)=O)C(=O)N1)C(=O)N[C@@H](C)C(=O)N[C@@H](Cc1c[nH]c2ccccc12)C(=O)N[C@@H](CC(C)C)C(=O)N[C@@H](CCSC)C(=O)N[C@@H](CC(N)=O)C(=O)N[C@H](C(N)=O)[C@@H](C)O` [mt-69] (H-HSQGTFTSDYSKYLDKIHQEEFIAWLMNT-NH2; lactam 16-20; N-terminus assumed), for which the concentration giving a half-maximal response (EC50) was determined as 0.16 nM at glucagon receptor (Table 1) and 14.6 nM at GIP receptor (GIP Receptor EC50, nM, Table 1). Also, the “Glucagon Receptor relative activity” value at glucagon receptor (setting [1]) was found to be 162.50%. For the same compound, the “GLP-1 Receptor relative activity” value on GLP-1 receptor (setting [1]) was determined as 12.20%. Moreover, the “GIP Receptor relative activity” value on GIP receptor (setting [1]) amounted to 0.57%.

`CC[C@H](C)[C@@H]1NC(=O)[C@@H](NC(=O)[C@H](CC(=O)O)NC(=O)[C@H](CC(C)C)NC(=O)[C@H](Cc2ccc(O)cc2)NC(=O)[C@H](CCCCN)NC(=O)[C@H](CO)NC(=O)[C@H](Cc2ccc(O)cc2)NC(=O)[C@H](CC(=O)O)NC(=O)[C@H](CO)NC(=O)[C@@H](NC(=O)[C@H](Cc2ccccc2)NC(=O)[C@@H](NC(=O)CNC(=O)[C@H](CCC(N)=O)NC(=O)[C@H](CO)NC(=O)[C@@H](N)Cc2c[nH]cn2)[C@@H](C)O)[C@@H](C)O)CCC(=O)NCCCC[C@@H](C(=O)N[C@@H](CC(=O)O)C(=O)N[C@@H](Cc2ccccc2)C(=O)N[C@H](C(=O)N[C@@H](CC(N)=O)C(=O)N[C@@H](Cc2c[nH]c3ccccc23)C(=O)N[C@@H](CC(C)C)C(=O)N[C@@H](CC(C)C)C(=O)N[C@@H](C)C(=O)N[C@@H](CCC(N)=O)C(N)=O)C(C)C)NC(=O)[C@H](CCC(N)=O)NC(=O)[C@H](Cc2c[nH]cn2)NC1=O` [mt-111] (H-HSQGTFTSDYSKYLDEIHQKDFVNWLLAQ-NH2; lactam 16-20; N-terminus assumed): the “Glucagon Receptor relative activity” value at glucagon receptor (setting [1]) amounted to 85.19%. This compound registered an EC50 on GLP-1 receptor (Table 1) of 0.66 nM. On GLP-1 receptor (setting [1]), the “GLP-1 Receptor relative activity” value worked out at 10.61%. On GIP receptor (setting [1]), the “GIP Receptor relative activity” value came out at 0.78%.

Consider `CC[C@H](C)[C@H](NC(=O)[C@H](CO)NC(=O)[C@H](Cc1ccc(O)cc1)NC(=O)[C@H](CC(=O)O)NC(=O)[C@H](CO)NC(=O)[C@@H](NC(=O)[C@H](Cc1ccccc1)NC(=O)[C@@H](NC(=O)CNC(=O)[C@H](CCC(N)=O)NC(=O)C(C)(C)NC(=O)[C@@H](N)Cc1ccc(O)cc1)[C@@H](C)O)[C@@H](C)O)C(=O)N[C@@H](Cc1ccc(O)cc1)C(=O)N[C@@H](CC(C)C)C(=O)N[C@@H](CC(=O)O)C(=O)NC(C)(C)C(=O)N[C@@H](CCC(N)=O)C(=O)N[C@@H](C)C(=O)N[C@@H](C)C(=O)N[C@@H](CCCCN)C(=O)N[C@@H](CCC(=O)O)C(=O)N[C@@H](Cc1ccccc1)C(=O)N[C@H](C(=O)N[C@@H](CC(N)=O)C(=O)N[C@@H](Cc1c[nH]c2ccccc12)C(=O)N[C@@H](CC(C)C)C(=O)N[C@@H](CC(C)C)C(=O)N[C@@H](C)C(=O)NCC(=O)NCC(=O)N1CCC[C@H]1C(=O)N[C@@H](CO)C(=O)N[C@@H](CO)C(=O)NCC(=O)N[C@@H](C)C(=O)N1CCC[C@H]1C(=O)N1CCC[C@H]1C(=O)N1CCC[C@H]1C(=O)N[C@@H](CO)C(=O)N[C@@H](CS)C(N)=O)C(C)C` [mt-241] (H-Y[Aib]QGTFTSDYSIYLD[Aib]QAAKEFVNWLLAGGPSSGAPPPSC-NH2; N-terminus assumed), for which the “Glucagon Receptor relative activity” value on glucagon receptor (Table 2) is reported as 3.73%. On GLP-1 receptor (Table 2), a half-maximal effect (EC50) was put at 0.023 nM and the “GLP-1 Receptor relative activity” value was 130.43%. Further, the “GIP Receptor relative activity” value at GIP receptor (Table 2) turned out to be 4.37%.

With `CC[C@H](C)[C@H](NC(=O)[C@H](Cc1ccccc1)NC(=O)[C@H](CCC(=O)O)NC(=O)[C@@H]1CCCCNC(=O)CC[C@H](NC(=O)[C@H](CC(=O)O)NC(=O)[C@H](CC(C)C)NC(=O)[C@H](C)NC(=O)[C@H](CCCCN)NC(=O)[C@H](CO)NC(=O)[C@H](Cc2ccc(O)cc2)NC(=O)[C@H](CC(=O)O)NC(=O)[C@H](CO)NC(=O)[C@@H](NC(=O)[C@H](Cc2ccccc2)NC(=O)[C@@H](NC(=O)CNC(=O)[C@H](CCC(N)=O)NC(=O)[C@H](CO)NC(=O)[C@@H](N)Cc2c[nH]cn2)[C@@H](C)O)[C@@H](C)CC)C(=O)N[C@@H]([C@@H](C)CC)C(=O)N[C@@H](Cc2c[nH]cn2)C(=O)N[C@@H](CCC(N)=O)C(=O)N1)C(=O)N[C@@H](C)C(=O)N[C@@H](Cc1c[nH]c2ccccc12)C(=O)N[C@@H](CC(C)C)C(=O)N[C@@H](CCSC)C(=O)N[C@@H](CC(N)=O)C(=O)N[C@H](C(N)=O)[C@@H](C)O` [mt-108] (H-HSQGTFISDYSKALDEIHQKEFIAWLMNT-NH2; lactam 16-20; N-terminus assumed), the “Glucagon Receptor relative activity” value at glucagon receptor (setting [1]) is reported as 68.42%. Further, on GLP-1 receptor (setting [1]), the “GLP-1 Receptor relative activity” value came out at 12.50%. The “GIP Receptor relative activity” value at GIP receptor (setting [1]) came to 0.52%.

As to `CC[C@H](C)[C@@H]1NC(=O)[C@@H](NC(=O)[C@H](CC(=O)O)NC(=O)[C@H](CC(C)C)NC(=O)[C@H](Cc2ccc(O)cc2)NC(=O)[C@H](CCCCN)NC(=O)[C@H](CO)NC(=O)[C@H](Cc2ccc(O)cc2)NC(=O)[C@H](CC(=O)O)NC(=O)[C@H](CO)NC(=O)[C@@H](NC(=O)[C@H](Cc2ccccc2)NC(=O)[C@@H](NC(=O)CNC(=O)[C@H](CCC(N)=O)NC(=O)[C@H](CO)NC(=O)[C@@H](N)Cc2ccc(O)cc2)[C@@H](C)O)[C@@H](C)O)CCC(=O)NCCCC[C@@H](C(=O)N[C@@H](CCC(=O)O)C(=O)N[C@@H](Cc2ccccc2)C(=O)N[C@H](C(=O)N[C@@H](CC(N)=O)C(=O)N[C@@H](Cc2c[nH]c3ccccc23)C(=O)N[C@@H](CC(C)C)C(=O)N[C@@H](CC(C)C)C(=O)N[C@@H](C)C(=O)N[C@@H](CCC(N)=O)C(N)=O)C(C)C)NC(=O)[C@H](CCC(N)=O)NC(=O)[C@H](Cc2c[nH]cn2)NC1=O` [mt-118] (H-YSQGTFTSDYSKYLDEIHQKEFVNWLLAQ-NH2; lactam 16-20; N-terminus assumed), the “Glucagon Receptor relative activity” value at glucagon receptor (setting [1]) is on record as 125.00%. Moreover, on GLP-1 receptor (setting [1]), the “GLP-1 Receptor relative activity” value is on record as 2.34%. Moreover, the “GIP Receptor relative activity” value on GIP receptor (setting [1]) worked out at 6.39%.

In the case of `CC(C)C[C@H](NC(=O)[C@H](CC(C)C)NC(=O)[C@H](Cc1c[nH]c2ccccc12)NC(=O)[C@H](CC(N)=O)NC(=O)[C@@H](NC(=O)[C@H](Cc1ccccc1)NC(=O)[C@H](CCC(=O)O)NC(=O)[C@@H]1CCCCNC(=O)CC[C@H](NC(=O)[C@H](CC(=O)O)NC(=O)[C@H](CC(C)C)NC(=O)[C@H](Cc2ccc(O)cc2)NC(=O)[C@@H]2CCCCNC(=O)CC[C@H](NC(=O)[C@H](CO)NC(=O)[C@@H](NC(=O)[C@H](Cc3ccccc3)NC(=O)[C@@H](NC(=O)CNC(=O)[C@H](CCC(N)=O)NC(=O)C(C)(C)NC(=O)[C@@H](N)Cc3ccc(O)cc3)[C@@H](C)O)[C@@H](C)O)C(=O)N[C@@H](Cc3ccc(O)cc3)C(=O)N[C@@H](CO)C(=O)N2)C(=O)N[C@@H](CCC(N)=O)C(=O)N[C@@H](C)C(=O)N[C@@H](C)C(=O)N1)C(C)C)C(=O)N[C@@H](C)C(=O)NCC(=O)NCC(=O)N1CCC[C@H]1C(=O)N[C@@H](CO)C(=O)N[C@@H](CO)C(=O)NCC(=O)N[C@@H](C)C(=O)N1CCC[C@H]1C(=O)N1CCC[C@H]1C(=O)N1CCC[C@H]1C(=O)N[C@@H](CO)C(=O)N[C@@H](CS)C(N)=O` [mt-209] (H-Y[Aib]QGTFTSEYSKYLDEQAAKEFVNWLLAGGPSSGAPPPSC-NH2; lactam 9-12, 16-20; N-terminus assumed), the “Glucagon Receptor relative activity” value on glucagon receptor (setting [1]) turned out to be 0.90%. Besides, the “GLP-1 Receptor relative activity” value on GLP-1 receptor (setting [1]) worked out at 1.33%. Further, the “GIP Receptor relative activity” value on GIP receptor (setting [1]) was found to be 1.42%.
